The values below come from ChEMBL document CHEMBL1154867, “Cytotoxic halogenated metabolites from the Brazilian red alga Laurencia catarinensis” (J Nat Prod, 2010).

Holding throughout (type): functional, cell-based
For one experiment, the system named is A-431. The experiment in a line: Cytotoxicity against human A431 cells after 24 hrs by MTT assay. The note with it: A-431, 24 h. For orientation: Tetrazolium assays rely on reduction of a dye to a coloured formazan, in cell work by metabolically active cells.
For the next experiment, the system named is HT-29. The experiment in a line: Cytotoxicity against human HT-29 cells after 24 hrs by MTT assay. The note with it: HT-29, 24 h.
In the next experiment the test system is MCF7. The experiment in a line: Cytotoxicity against human MCF7 cells after 24 hrs by MTT assay. The note with it: MCF7, 24 h.

Consider `CC(=O)O[C@H]1C[C@@](C)(Cl)[C@H](Br)C[C@@H]1[C@]1(C)OC(C)(C)[C@@H](Br)C[C@@H]1O`, for which the IC50 (in general, the concentration that inhibits the measured activity by half) in the experiment with A-431 came out at 13.1 µM; with HT-29 it was 12.4 µM; in the experiment with MCF7, 11.7 µM.

As to `CC(=O)O[C@H]1C[C@H](Br)C(C)(C)O[C@@]1(C)[C@H]1C[C@@H](Br)[C@](C)(Cl)C[C@@H]1O`, the IC50 with A-431 is 72.1 µM; in the experiment with HT-29 it was 70.4 µM; in the experiment on MCF7 it was 73.6 µM.

`CC(=O)O[C@H]1C[C@@](C)(Cl)[C@H](Br)C[C@@H]1[C@]1(C)OC(C)(C)[C@@H](Br)C[C@@H]1OC(C)=O`: the IC50 with A-431, with HT-29 and in the experiment with MCF7 was more than 100 µM throughout.

Consider `CC(=O)O[C@H]1C[C@@](C)(Cl)[C@H](Br)C[C@@H]1[C@@]1(C)CC[C@H](Br)C(C)(C)O1`, for which the IC50 with A-431 turned out to be 54.9 µM; with HT-29 it was 48.8 µM; in the experiment with MCF7 it was 52.4 µM.

For the molecule `CC1(C)O[C@@](C)([C@@H]2CC[C@@](C)(Cl)[C@H](Br)C2)CC[C@H]1Br`, the IC50 in the experiment on A-431, in the experiment on HT-29 and in the experiment on MCF7 was more than 100 µM each time.

As to `CO[C@@]1(C)OC(=O)C=C1[C@@H]1CC[C@@](C)(Cl)[C@H](Br)C1` (relative stereo), the values for the IC50 in the experiment on A-431, in the experiment on HT-29 and with MCF7 were 91.7 µM, 85.6 µM and 89 µM, respectively.

Turning to `CO[C@]1(C)OC(=O)C=C1[C@@H]1CC[C@@](C)(Cl)[C@H](Br)C1` (relative stereo), the IC50 in the experiment on A-431, in the experiment with HT-29 and in the experiment on MCF7 was more than 100 µM each time.

As for `CC(=O)O[C@H]1C[C@H](Br)C(C)(C)O[C@@]1(C)[C@@H]1CC[C@@](C)(Cl)[C@H](Br)C1` [ACETYLCAESPITOL], the IC50 in the experiment with A-431 came to 17.4 µM; in the experiment on HT-29 it was 16.1 µM; in the experiment with MCF7, 17.6 µM.

With `CC1(C)C=CC(=O)[C@](C)([C@@H]2CC[C@@](C)(Cl)[C@H](Br)C2)O1` [CAESPITENONE], the IC50 with A-431 stood at 21.6 µM; in the experiment on HT-29, 18.9 µM; in the experiment on MCF7 it was 19.7 µM.

Take `CC1(C)O[C@](C)([C@H]2CC[C@](C)(Cl)[C@@H](Br)C2)[C@H](O)C[C@H]1Br` [CAESPITOL]: the IC50 is 10.2 µM with A-431, 7.6 µM in the experiment with HT-29 and 9.7 µM in the experiment on MCF7.

As to `CC1(C)O[C@@](C)([C@@H]2CC[C@](C)(Br)[C@@H](Cl)C2)CC[C@@H]1Br` [DEOXY ISOCAESPITOL], the IC50 is 30.7 µM with A-431, 27.3 µM with HT-29 and 31.7 µM in the experiment with MCF7.

With `CC1(C)O[C@@](C)([C@@H]2CC[C@@](C)(Cl)[C@H](Br)C2)CC[C@@H]1Br` [DEOXYCAESPITOL], the IC50 is 13.1 µM in the experiment with A-431, 12.5 µM with HT-29 and 11.2 µM in the experiment with MCF7.

On to `C[C@]1(O)OC(=O)C=C1[C@@H]1CC[C@@](C)(Cl)[C@H](Br)C1` [FUROCAESPITANELACTOL], for which the IC50 in the experiment with A-431, with HT-29 and in the experiment on MCF7 was more than 100 µM throughout.

With `CC1(C)O[C@@](C)([C@@H]2CC[C@](C)(Br)[C@@H](Cl)C2)[C@@H](O)C[C@@H]1Br` [ISOCAESPITOL], the IC50 with A-431, with HT-29 and in the experiment on MCF7 was more than 100 µM throughout.

Turning to `CCCCCCCCCCCCCCCCOP(=O)([O-])OCC[N+](C)(C)C` [MILTEFOSINE], the IC50 with A-431 worked out at 53.7 µM; with HT-29, 48.6 µM; in the experiment with MCF7, 42.3 µM.
